Assays:
[1] = tested on: GBM-37; assay: cholecystokinin (CCK) measurement after treatment; type: cell-based, human; conditions: GBM-37 compared with GBM-28
Experimental: (§1) In order to confirm the anticancer efficacy of NUPR1 isoform A inhibitors in brain tumors, experiments were performed using brain tumor patient-derived cell lines obtained from primary glioblastoma patients (GBM-28) and secondary gliosarcoma patients (GBM-37).
In addition, after treating GBM-28 and GBM-37 with temozolomide and 3dc, respectively, cholecystokinin (CCK) results were measured.

[2] = tested on: GBM-37; assay: cell viability after 3dc pre-treatment and temozolomide (anticancer adjuvant); type: cell-based, human
Experimental: To confirm whether 3dc, a NUPR1 isoform A inhibitor, may be applied as an anticancer adjuvant, brain tumor cell GBM-37 was treated with temozolomide (TMZ) and 3dc, and cell viability was confirmed.
GBM-37 was pre-treated with 50 nM, 100 nM, and 200 nM of 3dc for 24 hours, and then was treated with 250 μM, 500 μM, 1000 μM, 2000 μM, and 4000 μM of temozolomide, respectively, and cell viability was confirmed.

[3] = tested on: Caov3; assay: cell viability, ovary cancer cells; type: cell-based; conditions: as treatment concentration of 3dc increased
From the text: (§2) For ovary cancer cells, Caov3 and SKOV3, as the treatment concentration of 3dc, a NUPR1 isoform A inhibitor, increased, cell viability decreased, confirming the anticancer efficacy of 3dc (FIG. 30).

[4] = tested on: SKOV3; assay: cell viability, ovary cancer cells; type: cell-based; conditions: as treatment concentration of 3dc increased
From the text: as §2

[5] = tested on: GBM-37; assay: cDNA microarray transcriptome analysis; type: cell-based, human
Experimental: In addition, GBM-37 was treated with 100 nM of 3dc, and transcriptome changes were confirmed through cDNA microarray analysis.

[6] = tested on: GBM-37; assay: cell viability with increasing 3dc concentration; type: cell-based, human; conditions: as treatment concentration of 3dc increased
Experimental: as §1

[7] = tested on: GBM-28; assay: cell viability with increasing 3dc concentration; type: cell-based, human; conditions: as treatment concentration of 3dc increased
Experimental: as §1

[8] = tested on: NUPR1 isoform A; assay: immunochemical analysis of nuclear transfer of NUPR1 isoform A; type: cell-based, human; conditions: GBM-37, immunochemical analysis
Experimental: as §1
First, through immunochemical analysis, it was confirmed that when GBM-37 was treated with 3dc, nuclear transfer of the NUPR1 isoform A was inhibited, as shown in FIG. 6.

[9] = tested on: GBM-37; assay: invasion and proliferation assay; type: cell-based, human; conditions: GBM-37 compared with GBM-28
Experimental: as §1

[10] = tested on: A549; assay: mouse model intravitreally injected with lung cancer cells, tumor size; type: in vivo; conditions: A549 in Balb/c nude mice, 1 mM 3dc, visually observed after 1, 2, 3 and 4 weeks
Experimental: (§3) In addition, lung cancer cells, A549 and NCI-H1299 was intravitreal injected into 6-week-old male Balb/c nude mice at 3×10^5 cells/2 μl according to a method disclosed in Lee et al. Experimental & Molecular Medicine (2019) 51:43, and then the tumor size of 1 mM 3dc treatment group (experimental group) and the untreated group (control group) was visually observed after 1 week, 2 weeks, 3 weeks and 4 weeks.

[11] = tested on: NCI-H1299; assay: as above; type: in vivo; conditions: NCI-H1299 in Balb/c nude mice, 1 mM 3dc, visually observed after 1, 2, 3 and 4 weeks
Experimental: as §3

[12] = tested on: HCT116; assay: cell viability, colon cancer cells; type: cell-based; conditions: as treatment concentration of 3dc increased
From the text: (§4) For colon cancer cells, HT29 and HCT116, as the treatment concentration of 3dc, a NUPR1 isoform A inhibitor, increased, cell viability decreased, confirming the anticancer efficacy of 3dc (FIG. 22).

[13] = tested on: HT29; assay: cell viability, colon cancer cells; type: cell-based; conditions: as treatment concentration of 3dc increased
From the text: as §4

[14] = tested on: BT-20; assay: cell viability, breast cancer cells; type: cell-based; conditions: as treatment concentration of 3dc increased
From the text: (§5) For breast cancer cells, BT-20 and MCF7, as the treatment concentration of 3dc, a NUPR1 isoform A inhibitor, increased, cell viability decreased, confirming the anticancer efficacy of 3dc (FIGS. 32, 33, and 34).

[15] = tested on: MCF7; assay: cell viability, breast cancer cells; type: cell-based; conditions: as treatment concentration of 3dc increased
From the text: as §5

[16] = tested on: HCT116; assay: mouse model intravitreally injected with colon cancer cells, tumor size; type: in vivo; conditions: HCT116 in Balb/c nude mice, 1 mM 3dc, visually observed after 1, 2, 3 and 4 weeks
Experimental: as §3, with “colon” for “lung”, “HT29” for “A549”, “HCT116” for “NCI-H1299”

[17] = tested on: HT29; assay: as above; type: in vivo; conditions: HT29 in Balb/c nude mice, 1 mM 3dc, visually observed after 1, 2, 3 and 4 weeks
Experimental: as §3, with “colon” for “lung”, “HT29” for “A549”, “HCT116” for “NCI-H1299”

[18] = tested on: GBM-37; assay: wound healing assay; type: cell-based, human; conditions: GBM-37 compared with GBM-28
Experimental: as §1

[19] = biological target: NUPR1 isoform A (Homo sapiens, UniProt O60356); assay: calorimetric titration of 3dc and NUPR1 isoform A; conditions: read-out: binding affinity between the NUPR1 isoform A and 3dc
Experimental: Additionally, calorimetric titrations of 3dc and the NUPR1 isoform A were determined.

[20] = tested on: A549; assay: cell viability, lung cancer cells; type: cell-based; conditions: as treatment concentration of 3dc increased
From the text: (§6) For lung cancer cells, A549 and NCI-H1299, as the treatment concentration of 3dc, a NUPR1 isoform A inhibitor, increased, cell viability decreased, confirming the anticancer efficacy of 3dc (FIG. 26).

[21] = tested on: NCI-H1299; assay: cell viability, lung cancer cells; type: cell-based; conditions: as treatment concentration of 3dc increased
From the text: as §6

[22] = tested on: Hep3B; assay: cell viability, liver cancer cells; type: cell-based; conditions: as treatment concentration of 3dc increased
From the text: (§7) For liver cancer cells, HepG2 and Hep3B, as the treatment concentration of 3dc, a NUPR1 isoform A inhibitor, increased, cell viability decreased, confirming the anticancer efficacy of 3dc (FIG. 31).

[23] = tested on: HepG2; assay: cell viability, liver cancer cells; type: cell-based; conditions: as treatment concentration of 3dc increased
From the text: as §7

[24] = tested on: NUPR1 isoform A; assay: NUPR1 isoform A mRNA expression level in GBM-28 and GBM-37; type: cell-based, human; conditions: GBM-28 and GBM-37 cell lines, treated versus untreated
Experimental: as §1

[25] = tested on: DU145; assay: cell viability, prostate cancer cells; type: cell-based; conditions: as treatment concentration of 3dc increased
From the text: (§8) For prostate cancer cells, DU145 and PC3, as the treatment concentration of 3dc, a NUPR1 isoform A inhibitor, increased, cell viability decreased, confirming the anticancer efficacy of 3dc (FIG. 21).

[26] = tested on: PC3; assay: cell viability, prostate cancer cells; type: cell-based; conditions: as treatment concentration of 3dc increased
From the text: as §8

[27] = tested on: GBM-37; assay: cell proliferation analysis (MTS assay); type: cell-based, human; conditions: compared to untreated control
Experimental: as §1
(§9) In addition, after treating GBM-28 and GBM-37 with 3dc, cell proliferation analysis (MTS assay) was performed. As a result of treating GBM-28 and GBM-37 with 3dc, respectively, it was confirmed that cell proliferation was inhibited compared to the untreated control group, and compared to the control group overexpressing (OE) NUPR1 isoform A in GBM-28, in the case of i) treating 3dc, ii) transfecting the NUPR1 isoform A with siRNAs of SEQ ID NOs: 5 and 6 (siNUPR1a), and iii) transfecting 3dc-treated NUPR1 isoform A with siRNAs of SEQ ID NOs: 5 and 6, the cell proliferation was all inhibited. In addition, compared to the untreated control GBM-37, in the case of i) transfecting the NUPR1 isoform A with siRNAs of SEQ ID NOs: 5 and 6 and ii) transfecting 3dc-trated NUPR1 isoform A with siRNAs of SEQ ID NOs: 5 and 6, the cell proliferation was all inhibited, confirming that 3dc inhibited the proliferation ability of brain tumor cells expressing the NUPR1 isoform A (FIG. 11).

[28] = tested on: GBM-28; assay: cell proliferation analysis (MTS assay); type: cell-based, human
Experimental: as §1, §9

[29] = tested on: KATOIII; assay: cell viability, gastric cancer cells; type: cell-based; conditions: as treatment concentration of 3dc increased
From the text: (§10) For gastric cancer cells, KATOIII and NCl-N87, as the treatment concentration of 3dc, a NUPR1 isoform A inhibitor, increased, cell viability decreased, confirming the anticancer efficacy of 3dc (FIG. 35).

[30] = tested on: NCl-N87; assay: cell viability, gastric cancer cells; type: cell-based; conditions: as treatment concentration of 3dc increased
From the text: as §10

[31] = tested on: SK-MEL1; assay: cell viability, skin cancer cells; type: cell-based; conditions: as treatment concentration of 3dc increased
From the text: (§11) For skin cancer cells, A375P and SK-MEL1, as the treatment concentration of 3dc, a NUPR1 isoform A inhibitor, increased, cell viability decreased, confirming the anticancer efficacy of 3dc (FIG. 29).

[32] = tested on: A375P; assay: cell viability, skin cancer cells; type: cell-based; conditions: as treatment concentration of 3dc increased
From the text: as §11

[33] = tested on: SNU790; assay: cell viability, thyroid cancer cells; type: cell-based; conditions: as treatment concentration of 3dc increased
From the text: (§12) For thyroid cancer cells, SNU80 and SNU790, as the treatment concentration of 3dc, a NUPR1 isoform A inhibitor, increased, cell viability decreased, confirming the anticancer efficacy of 3dc (FIG. 25).

[34] = tested on: SNU80; assay: cell viability, thyroid cancer cells; type: cell-based; conditions: as treatment concentration of 3dc increased
From the text: as §12

[35] = GBM-37, gene ontology and network analysis
[36] = GBM-28 overexpressing (OE) NUPR1 isoform A, MTS assay, compared to OE control group

Chain of NUPR1 isoform A (Homo sapiens, UniProt O60356) (O60356 1-100 isoform O60356-2): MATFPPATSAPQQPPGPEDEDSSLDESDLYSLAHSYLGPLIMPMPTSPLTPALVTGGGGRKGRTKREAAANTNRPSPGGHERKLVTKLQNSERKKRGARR

With `FC(F)(F)c1ccc2c(c1)N(CCCCN1CCC(N3CCCC3)CC1)c1ccccc1S2` [3dc, 10-(4-(4-(pyrrolidin-1-yl)piperidin-1-yl)butyl)-2-(trifluoromethyl)-10H-phenothiazine] the “cholecystokinin (CCK) results” value [1] was “better effect”, the “cell viability compared to the untreated control group” value ([2]; GBM-37, 2000 μM temozolomide, 3dc at 50 nM, 100 nM and 200 nM) was “significantly reduced” and the “cell viability compared to the untreated control group” value ([2]; GBM-37 pre-treated 24 hours with 50, 100, 200 nM 3dc, then 250-4000 μM temozolomide) was “significantly reduced”. The cell viability [3] was “decreased”, the cell viability [4] was “decreased” and the “genes related to essential cell phenomena such as DNA repair, cell migration, and cell cycle” value ([5]; GBM-37, 100 nM 3dc, cDNA microarray) was “down-regulated”. The “genomic aberrations of coding genes: most chromosomal genes” value ([5]; GBM-37, based on the transcriptome analysis) was “affected or down-regulated”, the “basic biological processes such as DNA packaging and protein-DNA complex assembly” value [5, 35] was “significantly inhibited” and the “basic cellular components such as DNA packaging complexes and nucleosomes” value [5, 35] was “destroyed”. The “basic molecular functions such as nucleic acid binding and RNA binding” value [5, 35] was “significantly inhibited”, the cell viability [6] was “decreased” and the cell viability [7] was “decreased”. The “nuclear transfer of the NUPR1 isoform A” value [8] was “inhibited”, the invasion inhibitory effect [9] was “better” and the proliferation inhibitory effect [9] was “better”. For the same compound, the “tumor size compared with control group” value [10] was “smaller and more transparent”, the “tumor size compared with control group” value [11] was “smaller and more transparent” and the cell viability [12] was “decreased”. The cell viability [13] was “decreased”, the cell viability [14] was “decreased” and the cell viability [15] was “decreased”. For the same compound, the “tumor size compared with control group” value [16] was “smaller and more transparent”, the “tumor size compared with control group” value [17] was “smaller and more transparent” and the “inhibitory effect on cell migration” value [18] was “better inhibitory effect”. For the same compound, the Kd [19] was 89 µM, the cell viability [20] was “decreased” and the cell viability [21] was “decreased”. For the same compound, the cell viability [22] was “decreased”, the cell viability [23] was “decreased” and the “mRNA expression level of NUPR1 isoform A” value [24] was “significantly decreased”. The cell viability [25] was “decreased”, the cell viability [26] was “decreased” and the cell proliferation ([27]; GBM-37, 3dc treatment combined with siNUPR1a transfection) was “inhibited”. The cell proliferation ([27]; GBM-37, MTS assay) was “inhibited”, the cell proliferation ([28]; GBM-28, MTS assay, compared to untreated control group) was “inhibited” and the cell proliferation ([28]; GBM-28 overexpressing (OE) NUPR1 isoform A, 3dc treatment combined with siNUPR1a transfection, compared to OE control group) was “inhibited”. The cell proliferation [28, 36] was “inhibited”, the cell viability [29] was “decreased” and the cell viability [30] was “decreased”. For the same compound, the cell viability [31] was “decreased”, the cell viability [32] was “decreased” and the cell viability [33] was “decreased”. The cell viability [34] was “decreased”.

For “siNUPR1a: siRNAs of SEQ ID NOs: 5 and 6 directed against NUPR1 isoform A (chain 1 GCCUAUGCCCACUUCACCUUU; chain 2 AGGUGAAGUGGGCAUAGGCUU; listed as RNA, chemistry not given here)”, the cell proliferation ([27]; GBM-37, MTS assay) was “inhibited” and the cell proliferation [28, 36] was “inhibited”.
